This is an account of results in patent publication US10421774B2 (priority 2016, dated 2019).

Holding throughout (test): microbe, parasite or virus in culture
What all share (format): cell-based, HIV-1

Assay [1] deals with NLRepRlucP373S recombinant wild type (WT) virus. Put shortly:
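MT-2 cells infected with NLRepRlucP373S Renilla luciferase reporter virus (NL4-3, Gag P373S), inocula normalized by luciferase signal; compounds 3-fold serially diluted, 1% DMSO final. Virus yield read by Renilla luciferase after 4-5 days at 37 °C. EC50/EC90 from median effect equation; background = signal at NFV 3 μM.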

The subject of assay [2] is A364V site directed mutant virus. Conditions: for EC50: Human immunodeficiency virus 1, MT2, read-out: A364V EC50. Put shortly: (§1)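 Multiple-cycle assay in MT-2 cells infected with Renilla luciferase NL4-3 (Gag P373S background) carrying site-directed Gag A364V or V370A/ΔT371 changes, inocula normalized by luciferase signal. 10,000 cells/well, 3-fold compound dilutions, 1% DMSO, 4–5 days at 37°C; yield read as Renilla luciferase.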

The test system of assay [3] is gag V370A/ΔT371 virus. Conditions: for EC50: Human immunodeficiency virus 1, MT2, read-out: V370A/ΔT371 EC50. In short, it runs like this:
as §1

For assay [4], the system named is T332S/V362I/Pr R41G virus. To be noted: for EC50: Human immunodeficiency virus 1, MT2, read-out: T332S/V362I/pr41G EC50. Put shortly:
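Renilla luciferase NL4-3 reporter virus (Gag P373S background) carrying Gag T332S/V362I plus protease R41G, inoculum normalized by luciferase signal, infected MT-2 cells (10,000/well). Compounds 3-fold diluted, 1% DMSO final. After 4–5 days at 37 °C, virus yield measured as Renilla luciferase activity in a multiple-cycle assay.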

Where [5] appears, read: Human immunodeficiency virus 1, MT2, read-out: WT EC50.

Where two headings read alike, the source gives them in different places.

As to `C=C(C)[C@@H]1CC[C@]2(NCCN3CCS(=O)(=O)CC3)CC[C@]3(C)[C@H](CC[C@@H]4[C@@]5(C)CC=C(C6=CCC(COc7cccc(C#N)n7)(C(=O)O)CC6)C(C)(C)[C@@H]5CC[C@]43C)[C@@H]12` (stereo partly drawn) [Example 39, 1-(((6-cyanopyridin-2-yl)oxy)methyl)-4-((1R,3aS,5aR,5bR,7aR,11aS,11bR,13aR,13bR)-3a-((2-(1,1-dioxidothiomorpholino)ethyl)amino)-5a,5b,8,8,11a-pentamethyl-1-(prop-1-en-2-yl)-2,3,3a,4,5,5a,5b,6,7,7a,8,11,11a,11b,12,13,13a,13b-octadecahydro-1H-cyclopenta[a]chrysen-9-yl)cyclohex-3-ene-1-carboxylic acid], the EC50 in assay [1] (setting [5]) is 14 nM; in assay [2], less than 50 nM; in assay [3] it was greater than 50 nM; in assay [4], greater than 50 nM.
For `C=C(C)[C@@H]1CC[C@]2(NCCN3CCS(=O)(=O)CC3)CC[C@]3(C)[C@H](CC[C@@H]4[C@@]5(C)CC=C(C6=CCC(COc7cccc(C(N)=O)n7)(C(=O)O)CC6)C(C)(C)[C@@H]5CC[C@]43C)[C@@H]12` (stereo partly drawn) [Example 40, 1-(((6-carbamoylpyridin-2-yl)oxy)methyl)-4-((1R,3aS,5aR,5bR,7aR,11aS,11bR,13aR,13bR)-3a-((2-(1,1-dioxidothiomorpholino)ethyl)amino)-5a,5b,8,8,11a-pentamethyl-1-(prop-1-en-2-yl)-2,3,3a,4,5,5a,5b,6,7,7a,8,11,11a,11b,12,13,13a,13b-octadecahydro-1H-cyclopenta[a]chrysen-9-yl)cyclohex-3-ene-1-carboxylic acid], the EC50 in assay [1] (setting [5]) is 4 nM; in assay [2] it was 271 nM; in assay [3] it was 233 nM; in assay [4], 233 nM.
On to `C=C(C)[C@@H]1CC[C@]2(NCC[C@]3(O)CC[C@@H](S(C)(=O)=O)CC3)CC[C@]3(C)[C@H](CC[C@@H]4[C@@]5(C)CC=C(C6=CCC(COc7ccccn7)(C(=O)O)CC6)C(C)(C)[C@@H]5CC[C@]43C)[C@@H]12` (stereo partly drawn) [Example A1, 4-((1R,3aS,5aR,5bR,7aR,11aS,11bR,13aR,13bR)-3a-((2-((1s,4R)-1-hydroxy-4-(methylsulfonyl)cyclohexyl)ethyl)amino)-5a,5b,8,8,11a-pentamethyl-1-(prop-1-en-2-yl)-2,3,3a,4,5,5a,5b,6,7,7a,8,11,11a,11 b,12,13,13a,13b-octadecahydro-1H-cyclopenta[a]chrysen-9-yl)-1-((pyridin-2-yloxy)methyl)cyclohex-3-enecarboxylic acid], for which the EC50 in assay [1] (setting [5]) was found to be 5 nM; in assay [2], 9 nM; in assay [3], 26 nM; in assay [4], 26 nM.
With `C=C(C)[C@@H]1CC[C@]2(NCC[C@]3(O)CC[C@H](S(C)(=O)=O)CC3)CC[C@]3(C)[C@H](CC[C@@H]4[C@@]5(C)CC=C(C6=CCC(COc7ccccn7)(C(=O)O)CC6)C(C)(C)[C@@H]5CC[C@]43C)[C@@H]12` (stereo partly drawn) [Example A2, 4-((1R,3aS,5aR,5bR,7aR,11aS,11bR,13aR,13bR)-3a-((2-((1r,4S)-1-hydroxy-4-(methylsulfonyl)cyclohexyl)ethyl)amino)-5a,5b,8,8,11a-pentamethyl-1-(prop-1-en-2-yl)-2,3,3a,4,5,5a,5b,6,7,7a,8,11,11a,11 b,12,13,13a,13b-octadecahydro-1H-cyclopenta[a]chrysen-9-yl)-1-((pyridin-2-yloxy)methyl)cyclohex-3-enecarboxylic acid], the EC50 is 1 nM in assay [1] (setting [5]), 14 nM in assay [2], 8 nM in assay [3] and 8 nM in assay [4].
As to `C=C(C)[C@@H]1CC[C@]2(NCC[C@]3(O)CC[C@@H](S(C)(=O)=O)CC3)CC[C@]3(C)[C@H](CC[C@@H]4[C@@]5(C)CC=C(C6=CC[C@@](COc7ncccc7C#N)(C(=O)O)CC6)C(C)(C)[C@@H]5CC[C@]43C)[C@@H]12` [Example A3, (S)-1-(((3-cyanopyridin-2-yl)oxy)methyl)-4-((1R,3aS,5aR,5bR,7aR,11aS,11bR,13aR,13bR)-3a-((2-((1s,4R)-1-hydroxy-4-(methylsulfonyl)cyclohexyl)ethyl)amino)-5a,5b,8,8,11a-pentamethyl-1-(prop-1-en-2-yl)-2,3,3a,4,5,5a,5b,6,7,7a,8,11,11a,11b,12,13,13a,13b-octadecahydro-1H-cyclopenta[a]chrysen-9-yl)cyclohex-3-enecarboxylic acid], the EC50 amounted to 4 nM in assay [1] (setting [5]); 4 nM in assay [1] (Human immunodeficiency virus 1, read-out: WT EC50); 11 nM in assay [2]; 5 nM in assay [3]; 5 nM in assay [4]. Moreover, the EC90 in assay [2] (Human immunodeficiency virus 1, read-out: A364V EC90) was 166 nM; in assay [3] (Human immunodeficiency virus 1, read-out: V370A/ΔT371 EC90), 15 nM; in assay [4] (Human immunodeficiency virus 1, read-out: T332S/V362I/prR41G EC90), 17 nM.
As for `C=C(C)[C@@H]1CC[C@]2(NCC[C@]3(O)CC[C@H](S(C)(=O)=O)CC3)CC[C@]3(C)[C@H](CC[C@@H]4[C@@]5(C)CC=C(C6=CC[C@@](COc7ncccc7C#N)(C(=O)O)CC6)C(C)(C)[C@@H]5CC[C@]43C)[C@@H]12` [Example A4, (S)-1-(((3-cyanopyridin-2-yl)oxy)methyl)-4-((1R,3aS,5aR,5bR,7aR,11aS,11bR,13aR,13bR)-3a-((2-((1r,4S)-1-hydroxy-4-(methylsulfonyl)cyclohexyl)ethyl)amino)-5a,5b,8,8,11a-pentamethyl-1-(prop-1-en-2-yl)-2,3,3a,4,5,5a,5b,6,7,7a,8,11,11a,11b,12,13,13a,13b-octadecahydro-1H-cyclopenta[a]chrysen-9-yl)cyclohex-3-enecarboxylic acid], the EC50 in assay [1] (setting [5]) was found to be 4 nM; in assay [2], 26 nM; in assay [3], 6 nM; in assay [4] it was 6 nM.
In the case of `C=C(C)[C@@H]1CC[C@]2(NCC[C@]3(O)CC[C@@H](S(C)(=O)=O)CC3)CC[C@]3(C)[C@H](CC[C@@H]4[C@@]5(C)CC=C(C6=CC[C@](COc7ncccc7C#N)(C(=O)O)CC6)C(C)(C)[C@@H]5CC[C@]43C)[C@@H]12` [Example A5, (R)-1-(((3-cyanopyridin-2-yl)oxy)methyl)-4-((1R,3aS,5aR,5bR,7aR,11aS,11bR,13aR,13bR)-3a-((2-((1s,4R)-1-hydroxy-4-(methylsulfonyl)cyclohexyl)ethyl)amino)-5a,5b,8,8,11a-pentamethyl-1-(prop-1-en-2-yl)-2,3,3a,4,5,5a,5b,6,7,7a,8,11,11a,11b,12,13,13a,13b-octadecahydro-1H-cyclopenta[a]chrysen-9-yl)cyclohex-3-enecarboxylic acid], the EC50 in assay [1] (setting [5]) amounted to 2 nM; in assay [2], 6 nM; in assay [3] it was 3 nM; in assay [4], 3 nM.
As for `C=C(C)[C@@H]1CC[C@]2(NCC[C@]3(O)CC[C@H](S(C)(=O)=O)CC3)CC[C@]3(C)[C@H](CC[C@@H]4[C@@]5(C)CC=C(C6=CC[C@](COc7ncccc7C#N)(C(=O)O)CC6)C(C)(C)[C@@H]5CC[C@]43C)[C@@H]12` [Example A6, (R)-1-(((3-cyanopyridin-2-yl)oxy)methyl)-4-((1R,3aS,5aR,5bR,7aR,11aS,11bR,13aR,13bR)-3a-((2-((1r,4S)-1-hydroxy-4-(methylsulfonyl)cyclohexyl)ethyl)amino)-5a,5b,8,8,11a-pentamethyl-1-(prop-1-en-2-yl)-2,3,3a,4,5,5a,5b,6,7,7a,8,11,11a,11b,12,13,13a,13b-octadecahydro-1H-cyclopenta[a]chrysen-9-yl)cyclohex-3-enecarboxylic acid], the EC50 is 2 nM in assay [1] (setting [5]), 5 nM in assay [2], 8 nM in assay [3] and 8 nM in assay [4].
Consider `C=C(C)[C@@H]1CC[C@]2(NC[C@@H](O)CO)CC[C@]3(C)[C@H](CC[C@@H]4[C@@]5(C)CC=C(C6=CC[C@](COc7ncccc7C#N)(C(=O)O)CC6)C(C)(C)[C@@H]5CC[C@]43C)[C@@H]12` [Example A7, (R)-1-(((3-cyanopyridin-2-yl)oxy)methyl)-4-((1R,3aS,5aR,5bR,7aR,11aS,11bR,13aR,13bR)-3a-(((R)-2,3-dihydroxypropyl)amino)-5a,5b,8,8,11a-pentamethyl-1-(prop-1-en-2-yl)-2,3,3a,4,5,5a,5b,6,7,7a,8,11,11a,11b,12,13,13a,13b-octadecahydro-1H-cyclopenta[a]chrysen-9-yl)cyclohex-3-enecarboxylic acid], for which the EC50 in assay [1] (setting [5]) came to 3 nM; in assay [2] it was 477 nM; in assay [3], 5 nM; in assay [4], 5 nM.
